According to the NIST ThermoML archive (doi:10.1021/je101012n):

Test: mn = molality of the nth substance listed, in mol/kg
Conditions: 101 kPa, Liquid, Alternating current cell with electrodes

[Cl-].[Cl-].[Sr+2] [strontium chloride] + O
electrical conductivity [S/m]
Conditions	278.15 K	283.15 K	298.15 K	308.15 K	318.15 K	343.15 K	363.15 K
m1 = 0.000125	0.002084	0.002384	0.003331	0.003972	0.004689	0.00678	0.00842
m1 = 0.00141	0.02222	0.02538	0.03603	0.04353	0.05151	0.07369	0.09235
m1 = 0.012	0.1807	0.2072	0.2926	0.3531	0.4164	0.5927	0.7383
m1 = 0.1313	1.663	1.892	2.646	3.174	3.719	5.229	6.184
m1 = 0.3891	4.194	4.751	6.457	7.797	9.074	12.51	15.38

O=S(=O)(O)O [sulfuric acid] + O
electrical conductivity [S/m]
Conditions	278.15 K	283.15 K	298.15 K	308.15 K	318.15 K	343.15 K	363.15 K
m1 = 9.4e-05	0.005493	0.006105	0.007827	0.008931	0.009949	0.01221	0.01367
m1 = 0.000936	0.05201	0.05749	0.07292	0.08174	0.09001	0.1026	0.1058
m1 = 0.00944	0.4321	0.4729	0.5772	0.6319	0.6759	0.7372	0.7698
m1 = 0.09223	3.12	3.444	4.13	4.525	4.885	5.575	6.159
m1 = 0.4664	13.46	14.5	17.37	19.34	20.96	25.62	28.05
